Entries after “also recorded” stand apart in the source; their conditions may differ.
T1: NOR1 (Homo sapiens, UniProt Q92570)
T1 construct: NOR1 (isoform alpha; uniprot entry: hNOR1–Q92570-1, residues 393–626); expressed in transfected cells; host or cells: HEK293T
T1 sequence (Q92570 393-626): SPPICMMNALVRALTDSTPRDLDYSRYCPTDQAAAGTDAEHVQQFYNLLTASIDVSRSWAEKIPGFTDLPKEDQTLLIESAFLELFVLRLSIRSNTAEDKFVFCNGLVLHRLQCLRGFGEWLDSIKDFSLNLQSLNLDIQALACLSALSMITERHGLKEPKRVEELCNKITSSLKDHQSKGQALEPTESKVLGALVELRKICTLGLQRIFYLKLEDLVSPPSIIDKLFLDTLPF

T2: RXRα (Homo sapiens, UniProt P19793)
T2 construct: expressed in transfected cells; host or cells: HEK293T
T2 sequence (P19793 227-458 limits assumed): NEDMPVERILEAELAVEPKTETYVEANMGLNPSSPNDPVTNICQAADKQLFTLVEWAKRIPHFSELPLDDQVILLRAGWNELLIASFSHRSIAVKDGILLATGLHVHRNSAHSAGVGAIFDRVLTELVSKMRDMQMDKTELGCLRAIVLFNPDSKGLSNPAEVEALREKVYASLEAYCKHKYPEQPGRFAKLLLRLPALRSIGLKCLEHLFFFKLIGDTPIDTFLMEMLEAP

T3: GFP-RXRα LBD (human, UniProt P19793-1 226-462)
T3 construct: Superfolder GFP is the FRET acceptor; a BamHI site lies between GFP and the LBD; also called GFP-labeled RXRα LBD; source: E. coli T7 express with pGro7, purified (IMAC, TEV cleavage, reverse IMAC, SEC); not shown: His10, N-terminal, cleaved; superfolder GFP, N-terminal, kept
T3 sequence (looked up): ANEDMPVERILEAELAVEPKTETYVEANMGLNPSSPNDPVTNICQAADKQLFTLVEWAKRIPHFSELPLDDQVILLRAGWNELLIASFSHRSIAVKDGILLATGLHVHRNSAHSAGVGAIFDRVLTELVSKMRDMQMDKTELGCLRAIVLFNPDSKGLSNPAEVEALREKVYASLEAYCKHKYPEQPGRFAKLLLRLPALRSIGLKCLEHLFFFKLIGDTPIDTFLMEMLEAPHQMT

B1: GFP-Nurr1 LBD (domain or fragment, human, UniProt P43354-1 364-598, looked up)
chain: LISALVRAHVDSNPAMTSLDYSRFQANPDYQMSGDDTQHIQQFYDLLTGSMEIIRGWAEKIPGFADLPKADQDLLFESAFLELFVLRLAYRSNPVEGKLIFCNGVVLHRLQCVRGFGEWIDSIVEFSSNLQNMNIDISAFSCIAALAMVTERHGLKEPKRVEELQNKIVNCLKDHVTFNNGGLNRPNYLSKLLGKLPELRTLCTQGLQRIFYLKLEDLVPPPAIIDKLFLDTLPF
notes: Superfolder GFP is the FRET acceptor; a BamHI site lies between GFP and the LBD; also called GFP-labeled Nurr1 LBD; source: E. coli T7 express with pGro7, purified (IMAC, TEV cleavage, reverse IMAC, SEC); not shown: His10, N-terminal, cleaved; superfolder GFP, N-terminal, kept
B2: biotinylated recombinant Nurr1 LBD (Tb-labeled through Tb-cryptate streptavidin) (domain or fragment, human, UniProt P43354-1 364-598, looked up)
chain: B1 chain
modifications: biotin on the lysine residue in the Avi-Tag
notes: In the assays coupled to terbium cryptate streptavidin conjugate (Tb-SA) as FRET donor; also called Tb-labeled Nurr1 LBD; Tb-cryptate-labeled Nurr1 LBD; source: E. coli T7 express with pGro7, purified (IMAC, TEV cleavage, amylose resin, birA biotinylation, monomeric avidin, SEC); not shown: MBP, N-terminal, cleaved; His8, N-terminal, cleaved; Avi-Tag, N-terminal, kept

Tests used:
[1] = biological target: T1, NOR1; assay: Gal4-NOR1 hybrid reporter gene assay in HEK293T cells; type: cell-based; settings: for Nor1 activity 10μM (mean fold activation) / Nor1 activity 30μM (mean fold activation): primary screen, n ≥ 2, ^# not significant vs VP16 control
[2] = biological target: T4, Gal4-VP16 (Human herpesvirus 1, UniProt P06492); type: cell-based; settings: n ≥ 4
T4 construct: host or cells: HEK293T

[3] = biological target: T2, RXRα; assay: Gal4-RXRα hybrid reporter gene assay (selectivity); type: cell-based; settings: selectivity profiling; also described previously
[4] = biological target: T5, Nurr1 (Homo sapiens, UniProt P43354); assay: Gal4-Nurr1 hybrid reporter gene assay in HEK293T cells; type: cell-based; settings: for Nurr1 activity 10μM (mean fold activation) / Nurr1 activity 30μM (mean fold activation): primary screen, n ≥ 2, ^# not significant vs VP16 control; for EC50: HEK293T, n≥3
T5 construct: Nurr1 (uniprot entry: hNURR1–P43354, residues 360–598); expressed in transfected cells; host or cells: HEK293T
T5 sequence (P43354 360-598): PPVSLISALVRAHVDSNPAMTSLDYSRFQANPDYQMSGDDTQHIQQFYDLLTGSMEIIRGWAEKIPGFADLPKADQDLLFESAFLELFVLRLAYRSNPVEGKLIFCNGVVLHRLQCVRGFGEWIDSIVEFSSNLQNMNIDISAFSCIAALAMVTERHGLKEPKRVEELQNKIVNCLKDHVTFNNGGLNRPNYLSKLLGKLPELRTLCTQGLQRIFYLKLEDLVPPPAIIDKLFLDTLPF

[5] = biological target: T6, Nur77 (Homo sapiens, UniProt P22736); assay: Gal4-Nur77 hybrid reporter gene assay in HEK293T cells; type: cell-based; settings: primary screen, n ≥ 2, ^# not significant vs VP16 control
T6 construct: Nur77 (uniprot entry: hNUR77–P22736, residues 358–598); expressed in transfected cells; host or cells: HEK293T
T6 sequence (P22736 358-598): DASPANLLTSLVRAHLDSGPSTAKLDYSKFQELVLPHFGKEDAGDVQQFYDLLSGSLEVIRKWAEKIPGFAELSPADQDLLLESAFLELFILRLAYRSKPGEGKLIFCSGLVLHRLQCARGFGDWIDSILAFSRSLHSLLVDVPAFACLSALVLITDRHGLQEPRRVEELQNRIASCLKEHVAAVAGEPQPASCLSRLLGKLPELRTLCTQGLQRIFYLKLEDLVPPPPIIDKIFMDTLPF

[6] = biological target: firefly luciferase (Photinus pyralis, UniProt P08659); assay: Firefly luciferase inhibition; settings: compounds marked with * in Fig. 2a
Sequence of firefly luciferase (P08659 whole entry, the tested form may be a part): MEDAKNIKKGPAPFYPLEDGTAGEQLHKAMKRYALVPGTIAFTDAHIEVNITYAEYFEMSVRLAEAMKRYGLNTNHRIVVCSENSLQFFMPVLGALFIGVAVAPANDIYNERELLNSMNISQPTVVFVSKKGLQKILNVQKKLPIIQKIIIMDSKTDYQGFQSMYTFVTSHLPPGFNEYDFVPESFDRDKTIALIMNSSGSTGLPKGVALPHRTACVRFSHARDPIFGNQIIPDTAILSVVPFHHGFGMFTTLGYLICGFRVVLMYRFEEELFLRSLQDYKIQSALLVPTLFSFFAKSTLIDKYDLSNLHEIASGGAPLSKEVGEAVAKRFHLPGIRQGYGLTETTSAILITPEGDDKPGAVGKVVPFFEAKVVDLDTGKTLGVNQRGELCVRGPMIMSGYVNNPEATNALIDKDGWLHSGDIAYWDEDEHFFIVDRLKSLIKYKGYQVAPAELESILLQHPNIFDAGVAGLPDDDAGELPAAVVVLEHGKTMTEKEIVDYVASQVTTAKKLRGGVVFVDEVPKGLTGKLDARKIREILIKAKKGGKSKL

[7] = system: PPAR; RXRα; RARα; assay: Selectivity profiling in Gal4 hybrid reporter gene assays outside the NR4A family; type: cell-based, human; settings: rel. activation vs reference agonists at 1 µM; n ≥ 4
[8] = biological target: T7, NBRE: Nurr1 monomer (Homo sapiens, UniProt P43354); assay: Full-length Nurr1 reporter gene assay on NBRE response element; type: cell-based; settings: full-length human Nurr1; HEK293T; mean ± SD
T7 construct: the activity of full-length human Nurr1 in cellular settings; host or cells: HEK293T
T7 sequence (P43354 whole entry): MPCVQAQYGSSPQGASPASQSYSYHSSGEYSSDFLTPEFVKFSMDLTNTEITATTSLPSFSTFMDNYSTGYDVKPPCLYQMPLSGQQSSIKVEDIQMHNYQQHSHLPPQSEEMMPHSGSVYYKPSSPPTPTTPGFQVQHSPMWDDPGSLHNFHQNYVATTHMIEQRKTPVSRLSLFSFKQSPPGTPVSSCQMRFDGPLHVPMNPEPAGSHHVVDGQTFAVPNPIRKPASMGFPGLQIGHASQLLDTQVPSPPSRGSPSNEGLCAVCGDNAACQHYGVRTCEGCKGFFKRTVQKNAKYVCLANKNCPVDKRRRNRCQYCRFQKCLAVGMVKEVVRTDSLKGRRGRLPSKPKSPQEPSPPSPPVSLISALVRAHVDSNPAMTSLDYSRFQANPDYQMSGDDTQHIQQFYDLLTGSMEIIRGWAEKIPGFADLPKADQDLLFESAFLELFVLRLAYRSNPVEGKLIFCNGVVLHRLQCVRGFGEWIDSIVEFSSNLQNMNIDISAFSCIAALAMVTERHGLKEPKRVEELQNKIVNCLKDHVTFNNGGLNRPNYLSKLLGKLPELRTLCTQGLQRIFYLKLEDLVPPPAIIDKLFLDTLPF

[9] = biological target: T8, NurRE: Nurr1 homodimer (Homo sapiens, UniProt P43354); assay: Full-length Nurr1 reporter gene assay on NurRE response element; type: cell-based; settings: full-length human Nurr1; HEK293T; mean ± SD
T8 construct: the activity of full-length human Nurr1 in cellular settings; host or cells: HEK293T
T8 sequence (P43354 whole entry): as above

[10] = biological target: T9, DR5: Nurr1–RXRα heterodimer (Homo sapiens, UniProt P43354); assay: Full-length Nurr1 reporter gene assay on DR5 response element; type: cell-based; settings: full-length human Nurr1 and RXRα overexpressed; HEK293T; mean ± SD
T9 construct: the activity of full-length human Nurr1 in cellular settings; host or cells: HEK293T
T9 sequence (P43354 whole entry, one chain of several): as the sequence (P43354 whole entry) above

[11] = biological target: T10, Nurr1 LBD homodimer (Homo sapiens, UniProt P43354); assay: Nurr1 homodimerization HTRF (GFP-Nurr1 LBD vs Tb-labeled Nurr1 LBD); type: biochemical; settings: cell-free; ligand 100 µM
T10 construct: Nurr1 (uniprot entry: P43354-1, residues 364–598); MBP-Asn10 linker (N, cleaved yes); His8-Tag (N, cleaved yes); His10-Tag (N, cleaved yes); made in house; host or cells: E. coli T7 express (with pGro7)
Experimental: Strength and modulation of the formation of the heterodimer composed of the LBDs of Nurr1 and RXRα was investigated by titration of GFP-RXRα LBD against a fixed concentration of Nurr1 LBD. Assay solutions were prepared in HTRF assay buffer supplemented with 0.1% (w/v) CHAPS as well as 1% DMSO with test compounds at 100 µM or DMSO alone as negative control. […] Free GFP was added to keep the total GFP content stable at 4 µM throughout the entire series in order to suppress artefacts from changes in degree of diffusion enhanced FRET. Samples were equilibrated at RT for 2 h before FI520 and FI620 were recorded after excitation at 340 nm, and the HTRF signal was calculated as described above.

[12] = biological target: T11, Nurr1–NCoR-1 interaction (Homo sapiens, UniProt P43354); assay: Nurr1–NCoR-1 interaction HTRF (GFP-Nurr1 LBD titrated against Tb-labeled NCoR-1); type: biochemical; settings: cell-free; ligand fixed at 100 µM
T11 construct: Nurr1 (uniprot entry: P43354-1, residues 364–598); His10-Tag (N, cleaved yes); made in house; host or cells: E. coli T7 express (with pGro7)
Experimental: Since ligand concentration was fixed in this setting, interference with the HTRF system is less prone to generate potential artifacts.
To maintain a constant GFP concentration, free GFP protein was added to the dilution series. The experiments were performed in HTRF assay buffer (150 mM KF, 25 mM HEPES pH 7.5 (KOH), 5% (w/v) Glycerol, supplemented with 0.1% (w/v) CHAPS and 5 mM DTT) with 1% DMSO in an assay volume of 20 µl. After 1 h incubation at RT, fluorescence intensities after excitation at 340 nm were recorded at 520 nm for GFP acceptor fluorescence and 620 nm for Tb-SA donor fluorescence and the HTRF signal was calculated as described above.

[13] = system: Nurr1; set-up: method as in PMID 26124091; settings: cited from earlier work
[14] = biological target: B2; assay: AlphaScreen or HTRF; Nurr1 homodimerization: GFP-Nurr1 LBD titrated from 500 nM against biotinylated Nurr1 LBD 0.375 nM on Tb-SA 0.75 nM; free GFP added to keep total GFP at 500 nM; HTRF assay buffer with 0.1% CHAPS; 1% DMSO alone or with AQ, CQ, parecoxib or oxaprozin at 100 µM; 2 h at RT; settings: both partners purified
[15] = biological target: T3, GFP-RXRα LBD; assay: AlphaScreen or HTRF; Nurr1-RXR heterodimerization: GFP-RXRα LBD titrated from 4 µM (dilution factor 0.7) against biotinylated Nurr1 LBD 0.375 nM on Tb-SA 0.75 nM; free GFP added to keep total GFP at 4 µM; HTRF assay buffer with 0.1% CHAPS; 1% DMSO alone or with AQ, CQ, MFA, parecoxib or oxaprozin at 100 µM; 2 h at RT; settings: both partners purified

Row | Molecule | Nurr1 activity 10μM (mean fold activation) [4] | Nurr1 activity 30μM (mean fold activation) [4] | EC50 ([4]; mean ± SD) | Nur77 activity 10μM (mean fold activation) [5] | Nur77 activity 30μM (mean fold activation) [5] | Nor1 activity 10μM (mean fold activation) [1] | Nor1 activity 30μM (mean fold activation) [1] | Inhibition of firefly luciferase [6] | further results
1 | O=C(O)CCc1nc(-c2ccccc2)c(-c2ccccc2)o1 [oxaprozin] | – | – | – | – | – | – | – | – | NOR1 min./max. activation ([1]; compared to 0.1% DMSO, mean ± SD): ≥ 0.00; Control experiments on Gal4-VP16 (non-specific reporter effects) [2]: no non-specific reporter suppression; RXR agonism [3]: weak RXR agonism
2 | O=C(O)COC(=O)Cc1ccccc1Nc1c(Cl)cccc1Cl [aceclofenac] | 0.85 fold | 0.46 fold | 2.5 ± 0.1 µM | 0.84 fold | 0.60 fold | 0.94 fold | 0.49 fold | inhibit firefly luciferase | Gal4-Nurr1 maximum/minimum activation ([4]; vs 0.1% DMSO, mean ± SD): 1.99 ± 0.07 fold; Selectivity over PPAR, RXRα, RARα [7]: confirmed selectivity
3 | CCN(CC)Cc1cc(Nc2ccnc3cc(Cl)ccc23)ccc1O [AQ, amodiaquine] | – | – | 36 µM | – | – | – | – | – | EC50 [8]: 92 µM; EC50 [9]: 87 µM; EC50 [10]: 97 µM; Homodimerization (effect of ligand) [11]: promoted homodimerization; also recorded: Promotes dimerization; NCoR-1 affinity (effect of ligand) [12]: promoted the Nurr1–NCoR-1 interaction; also recorded: Enhances affinity; Nurr1 activation efficacy [13]: ~ 3 fold
4 | Cc1ccc(Nc2c(F)cccc2Cl)c(CC(=O)O)c1 [lumiracoxib] | 0.90 fold | 0.76 fold | – | 0.76 fold | 0.66 fold | 0.86 fold | 0.79 fold | inhibit firefly luciferase | –
5 | B1 | – | – | – | – | – | – | – | – | binding result [14]: binds
6 | B2 | – | – | – | – | – | – | – | – | binding result [15]: binds
